# Patent publication US5279956A, “Activated protein C polypeptides and anti-peptide antibodies, diagnostic methods and systems for inhibiting activated protein C” (The Scripps Research Institute, priority 1991, dated 1994)
# Entries after “also recorded” stand apart in the source; their conditions may differ. No end group written: not given here.
# System: anti-(390-404) antibody
# Assay: Solid-phase ELISA: binding of anti-(390-404) antibody to immobilized peptides and PC
# Parameters: species or system rabbit
# Procedure: To determine the immunospecificity of the rabbit antisera obtained in Example 2b, ELISA assays were performed. Briefly, 50 μl of either 50 μM peptide-(390-404) prepared in Example 1 or 10 μg/ml of PC or APC prepared in Example 2c in a buffer consisting of 0.05M sodium carbonate (Na2 CO3) and 0.02% NaN3 at pH 9.0 were admixed into the wells of microtiter plates. The plates were maintained at 37° C. for one hour to permit the antigens to become operatively affixed to the well walls. After washing the antigen-coated wells with TBS, the wells were blocked with 250 μl/well of 10% bovine serum albumin (BSA) (Sigma) in TBS for one hour at 22° C. The blocking solution was then removed and the wells were subsequently washed five times with 250 μl/well of maintenance buffer (0.05M Tris-HCl, 0.1M NaCl, 0.02% NaN3, 1 mg/ml BSA, 5 mM CaCl2, 0.01% Tween 20 at pH 7.4). Fifty μl of rabbit non-immune or specific antiserum serially diluted in maintenance buffer was then admixed to the washed wells and maintained for one hour at 37° C. to allow formation of a solid liquid phase immunoreaction products. The wells were then washed three times with maintenance buffer followed by admixture of 50 μl of 2.0 μg/ml of secondary antibody (polyclonal biotinylated goat-anti-rabbit-IgG) (Pierce Biochemicals) diluted in maintenance buffer to each well for the detection of immunoreactant products. The plates were maintained for 1 hour at 37° C. after which time the secondary antibody solution was removed. After washing the wells as described above, 50 μl of 2.0 μg/ml streptavidin-alkaline-phosphatase (Pierce Biochemicals) in maintenance buffer was admixed into each well and maintained for 30 minutes at 37° C. Detection of specific immunoreaction products was obtained by admixture of 150 μl/well of 5 mg/ml p-nitrophenylphosphate (PNPP) (Pierce Biochemicals) in 0.1M diethanolamine and 0.02% NaN3 at pH 9.6 followed by measurement of the change in absorbance at 405 nm over time using the EL312 Microplate Bio-Kinetics Reader and the KinetiCalc Software Program (Biotek Instruments, Inc., Vt.). Non-specific binding was considered as the measured absorbance in 10% BSA blocked wells which served as negative controls without the preceding coating of a specific protein or peptide. Under the described conditions, non-specific binding never exceeded more than 5% of the specific binding.
# The specificity of immunoaffinity purified anti-(390-404) antibody towards peptide-(390-404) and PC was evaluated by measuring the binding in solid-phase ELISA of the antibody to immobilized peptides including -(384-398), -(390-404), -(396-410), -(404-390), and -K395A-(390-404) listed in Table 1 with their corresponding SEQ ID NO, and to PC. […]
substance,measurement,setting,value
"SGLLHNYGVYTKVSR-NH2 [peptide-(384-398), -SGLLHNYGVYTKVSR]",binding of anti-(390-404) antibody to immobilized peptide or PC,solid-phase ELISA,did not bind significantly; also recorded: did not significantly bind
same,Anti-(390-404) (Absorbance/20 min.),"wells coated with 50 μM peptide or 10 μg/ml PC, 2 μg/ml anti-(390-404) antibody, mean of duplicates",3 Absorbance/20 min.
